“And” between values parts separate entries of the source, which are not always exact repeats. Equal entries are not always repeated.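 Cells were grown in 96-well plates and exposed to each compound for 48 hours at five concentrations; endpoints were interpolated linearly between bracketing concentrations, or set to the highest concentration if not reached. At the GI50, growth is halved.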 The source made the active and inactive calls. Cut-off read from the data, not from the text of the source: active = GI50 up to about 1.1 µM and inactive = higher.
What was measured:
Experiment in all cases: NCI tumour cell line growth inhibition, 48 h
[1] = tested on: COLO 205
[2] = tested on: DU-145
[3] = tested on: HCT-116
[4] = tested on: HCT-15
[5] = tested on: HOP-92
[6] = tested on: IGROV-1
[7] = tested on: K562
[8] = tested on: LOX IMVI
[9] = tested on: MOLT-4
[10] = tested on: Malme-3M
[11] = tested on: NCI-H23
[12] = tested on: OVCAR-4
[13] = tested on: SK-MEL-2
[14] = tested on: SK-MEL-5
[15] = tested on: SN12C
[16] = tested on: SR
[17] = tested on: SW-620
[18] = tested on: U-251
[19] = tested on: UACC-62
[20] = tested on: CCRF-CEM

SMILES	GI50 [1]	GI50 [2]	GI50 [3]	GI50 [4]	GI50 [5]	GI50 [6]	GI50 [7]	GI50 [8]	GI50 [9]	GI50 [10]	GI50 [11]	GI50 [12]	GI50 [13]	GI50 [14]	GI50 [15]	GI50 [16]	GI50 [17]	GI50 [18]	GI50 [19]	GI50 [20]
CC(C)(C)OC(=O)CCC1NC(=O)[C@@H]2Cc3c([nH]c4ccccc34)C(C3CCCCC3)N2C1=O (stereo partly specified)	17.9 µM (inactive)	57.3 µM (inactive)	27 µM (inactive)	34.6 µM	33.2 µM (inactive)	36.8 µM (inactive)	32.4 µM (inactive)	26.4 µM (inactive)	12.4 µM (inactive)	29.1 µM (inactive)	39.6 µM (inactive)	28.8 µM (inactive)	22.8 µM (inactive)	31 µM (inactive)	22.4 µM (inactive)	15.5 µM (inactive)	44.4 µM (inactive)	27 µM (inactive)	45.3 µM (inactive)	
[N-]=[N+]=C1C(=O)c2ccccc2-c2ccccc21	32.1 µM (inactive)	30.9 µM (inactive)	28.1 µM (inactive)	29 µM	33.3 µM (inactive)	33 µM (inactive)	36.6 µM (inactive)	25.9 µM (inactive)	24.9 µM (inactive)		35 µM (inactive)	35.8 µM (inactive)	29.4 µM (inactive)	15.7 µM (inactive)	35.2 µM (inactive)	24.5 µM (inactive)	37.4 µM (inactive)	31.3 µM (inactive)	22.3 µM (inactive)	20.2 µM (inactive)
COc1ccc(/C=C2/N/C(=N\N=C/C(O)C(O)C(O)C(O)CO)NC2=O)cc1 (stereo unspecified)	> 100 µM (inactive)	> 100 µM (inactive)	> 100 µM (inactive)	> 100 µM	> 100 µM (inactive)	> 100 µM (inactive)	53.8 µM (inactive) and 78 µM (inactive)	> 100 µM (inactive)	> 10 µM (inactive)	> 100 µM (inactive)	> 100 µM (inactive)	39.9 µM (inactive) and 39.4 µM (inactive)	> 100 µM (inactive)	> 100 µM (inactive)	> 100 µM (inactive)	> 100 µM (inactive)	> 100 µM (inactive)	> 100 µM (inactive)		53.8 µM (inactive)
COc1ccc2nc3cc([N+](=O)[O-])ccc3c(Nc3ccc(S(=O)(=O)NC(C)=O)cc3)c2c1	51.3 µM (inactive)	90.6 µM (inactive)	44 µM (inactive)	71.1 µM	> 100 µM (inactive)		37.2 µM (inactive)	93.3 µM (inactive)	29.4 µM (inactive)	> 100 µM (inactive)	> 100 µM (inactive)	> 100 µM (inactive)	> 100 µM (inactive)	16.6 µM (inactive)	> 100 µM (inactive)	11.5 µM (inactive)	46.8 µM (inactive)	44.8 µM (inactive)	73.3 µM (inactive)	23.9 µM (inactive)
CC(=O)c1[nH]c(NC(C)C)c(C(=S)Nc2ccccc2)c1N	27.9 µM (inactive)	26.7 µM (inactive)	24.1 µM (inactive)	26.9 µM	17.7 µM (inactive)	26.4 µM (inactive)	33.4 µM (inactive)	19.1 µM (inactive)	37.2 µM (inactive)	25.7 µM (inactive)	36 µM (inactive)	30.4 µM (inactive)	17.9 µM (inactive)	18.3 µM (inactive)	27.9 µM (inactive)	23.7 µM (inactive)	54.1 µM (inactive)		23.6 µM (inactive)	25.5 µM (inactive)
CN1CCN(c2n[nH]c(=O)c3c2nnn3Cc2ccccc2)CC1	> 100 µM (inactive)	> 100 µM (inactive)	> 100 µM (inactive)	> 100 µM	17.2 µM (inactive)		> 100 µM (inactive)	> 100 µM (inactive)	> 100 µM (inactive)	> 100 µM (inactive)	> 100 µM (inactive)	> 100 µM (inactive)	> 100 µM (inactive)	> 100 µM (inactive)	15.5 µM (inactive)	> 100 µM (inactive)		> 100 µM (inactive)		> 100 µM (inactive)
CN(C)Cc1cc(/N=N/c2ccc(Cl)cc2)cc(CN(C)C)c1O	3.99 µM (inactive)	16.9 µM (inactive)	4.85 µM (inactive)	6.52 µM	2.45 µM (inactive)	3.38 µM (inactive)	2.52 µM (inactive)	3.1 µM (inactive)	2.75 µM (inactive)	14.7 µM (inactive)	21.2 µM (inactive)		12.9 µM (inactive)	8.79 µM (inactive)	11.4 µM (inactive)	4.59 µM (inactive)	8.09 µM (inactive)	7.24 µM (inactive)	13.9 µM (inactive)	2.1 µM (inactive)
COc1ccc(C(=O)N(C(=O)N2CCN(c3ccccc3)CC2)S(=O)(=O)c2ccccc2)cc1	17.9 µM (inactive)	27.2 µM (inactive)	18.8 µM (inactive)	27.8 µM	25.4 µM (inactive)		24.2 µM (inactive)	13.7 µM (inactive)	19.5 µM (inactive)	28.2 µM (inactive)	24.1 µM (inactive)	30.5 µM (inactive)	18.5 µM (inactive)	14.5 µM (inactive)	24.3 µM (inactive)	18.8 µM (inactive)	37.4 µM (inactive)	18.1 µM (inactive)	18.3 µM (inactive)	25.1 µM (inactive)
CC(=O)C1(O)CCC2(O)C3(O)CC=C4CC(O)CCC4(C)C3CC(OC(=O)c3ccc(O)cc3)C12C (stereo unspecified)	> 100 µM (inactive)	> 100 µM (inactive)	> 100 µM (inactive)	> 100 µM	> 100 µM (inactive)	> 100 µM (inactive)	27 µM (inactive)	> 100 µM (inactive)	46.2 µM (inactive)		> 100 µM (inactive)	> 100 µM (inactive)	> 100 µM (inactive)	> 100 µM (inactive)	> 100 µM (inactive)	> 100 µM (inactive)	> 100 µM (inactive)	> 100 µM (inactive)	75.2 µM (inactive)	> 100 µM (inactive)
COCOc1cc(OCOC)cc(C(=O)Oc2ccccc2)c1	> 100 µM (inactive)	> 100 µM (inactive)	> 100 µM (inactive)	> 100 µM	> 100 µM (inactive)	> 100 µM (inactive)	> 100 µM (inactive)	> 100 µM (inactive)	> 100 µM (inactive)	> 100 µM (inactive)	> 100 µM (inactive)	> 100 µM (inactive)	> 100 µM (inactive)	> 100 µM (inactive)	> 100 µM (inactive)	85.9 µM (inactive)	> 100 µM (inactive)	> 100 µM (inactive)	> 100 µM (inactive)	
N#CCCC(C=O)(CCC#N)CCC#N	> 100 µM (inactive)	> 100 µM (inactive)	> 100 µM (inactive)	> 100 µM	> 100 µM (inactive)	> 100 µM (inactive)	> 100 µM (inactive)	> 100 µM (inactive)		> 100 µM (inactive)	> 100 µM (inactive)	> 100 µM (inactive)	> 100 µM (inactive)	> 100 µM (inactive)	> 100 µM (inactive)	> 100 µM (inactive)	> 100 µM (inactive)	> 100 µM (inactive)	> 100 µM (inactive)	> 100 µM (inactive)
O=C(/C=C/c1ccc(Cl)c(Cl)c1)CCN1CCN(CCC(=O)/C=C/c2ccc(Cl)c(Cl)c2)CC1	21.8 µM (inactive)	23.8 µM (inactive)	7.55 µM (inactive)	13.8 µM	22.8 µM (inactive)	17 µM (inactive)	22.6 µM (inactive)	13 µM (inactive)	22.3 µM (inactive)		> 10 µM (inactive)	15.7 µM (inactive)	26.7 µM (inactive)	19.3 µM (inactive)	26.3 µM (inactive)	12.3 µM (inactive)	18.2 µM (inactive)	13.9 µM (inactive)	19.6 µM (inactive)	6.59 µM (inactive)
CSc1ccc(/C=C2\N=C(c3ccccc3)N(c3nc4cc(C)c(C)cc4s3)C2=O)cc1	35.2 µM (inactive)	49.7 µM (inactive)	18.3 µM (inactive)	40.7 µM	13.5 µM (inactive)	15.8 µM (inactive)	43.4 µM (inactive)	19.8 µM (inactive)	61.9 µM (inactive)			26.5 µM (inactive)	16 µM (inactive)	21.4 µM (inactive)	27 µM (inactive)	25 µM (inactive)	17.9 µM (inactive)	19.2 µM (inactive)	28.1 µM (inactive)	9.35 µM (inactive)
COC1=CC(=O)C2=C(C1=O)[C@H]1CC[C@]3(C)[C@@H](OC(C)=O)CC[C@H]3[C@@H]1CC2	44.2 µM (inactive)	67.8 µM (inactive)	29.3 µM (inactive)	49.5 µM	7.93 µM (inactive)	25.2 µM (inactive)	44.4 µM (inactive)	15.1 µM (inactive)	20.2 µM (inactive)	30.3 µM (inactive)	40.3 µM (inactive)	16.5 µM (inactive)	37.5 µM (inactive)	21.4 µM (inactive)	95.9 µM (inactive)	37.4 µM (inactive)	> 100 µM (inactive)	30.3 µM (inactive)		25.4 µM (inactive)
CC(=O)OC12c3ccccc3-c3ccccc3C1C1C(=O)N(C)C(=O)C12Cl (stereo unspecified)	> 10 µM (inactive)	> 10 µM (inactive)		> 10 µM	> 10 µM (inactive)	> 10 µM (inactive)	> 10 µM (inactive)	> 10 µM (inactive)	> 10 µM (inactive)	> 10 µM (inactive)	> 10 µM (inactive)	> 10 µM (inactive)	> 10 µM (inactive)	> 10 µM (inactive)	> 10 µM (inactive)	> 10 µM (inactive)	> 10 µM (inactive)	> 10 µM (inactive)		> 10 µM (inactive)
